Data on one compound can be found in patent publication US8609417B2, “Methods and compositions for stem cell cultures” (The Regents of the University of California, priority 2009, dated 2013).

Each structure is given as a SMILES string.

Type in all cases: cell-based, human
The subject of data set [1] is hiPS cells. Nature of the data set: Cell viability under suspension culture. Particulars: 2 days. The procedure:
For the evaluation of cell viability under suspension culture, hES or hiPS cells were plated at 5×10^5 in non-tissue culture-treated 6-well plates with non-conditioned standard hESm containing blebbistatin or Y-27632 at different concentrations in triplicates. After 2 days, cells were harvested with trypsinization and extensive trituration by pipetting, and the number of live cells was manually counted by using hemocytometer and trypan blue staining. The cell survival ratio (%) represents the ratio of the number of live cells to the number of cells plated. The same samples were subjected to TUNEL assay for side by side comparison with the data from cell viability assay.

Another data set concerns cleaved caspase-3. Nature of the data set: Western analysis of cleaved caspase-3. The conditions noted are these: hiPS cells under adherence condition. The protocol: Total protein was extracted with RIPA buffer (20 mM Tris-HCl, pH 7.5, 150 mM NaCl, 1 mM Na2EDTA, 1 mM EGTA, 1% NP-40, 1% sodium deoxycholate, 2.5 mM sodium pyrophosphate, 1 mM β-glycerophosphate, 1 mM Na3VO4, and protease inhibitors). Protein concentrations were determined by BCA Protein Assay kit (Pierce). An equal amount (20 μg) of protein was loaded in each lane, separated by 10% SDS/PAGE, and transferred onto a PVDF membrane (BioRad). The membrane was blocked in Odyssey blocking buffer (LI-COR Biotechnology), and subsequently incubated with primary antibodies against Oct3 (Santa Cruz Biotechnology), Nanog (Millipore), myosin IIA (Covance), myosin IIB (Covance), cleaved caspase-3 (Cell Signaling), or β-actin (Sigma) at 4° C. overnight followed by incubation with peroxidase-conjugated goat anti-mouse IgG or goat anti-rabbit IgG (Jackson ImmunoResearch, Inc.), and developed with ECL reagent (GE Healthcare).

Data set [2] deals with hiPS cells. Nature of the data set: Defined culture on PDL coating in mTeSR (self-renewal over passages). The procedure: Cell culture. Two independent hES cell lines, H9 (WiCell) and BGN01 (BresaGen), were examined. hiPS cells used in the study include iPS (Foreskin) Clone 1 (WiCell) and two independently derived hiPS cells from normal human dermal fibroblasts (NHDF) which have been characterized by a series of molecular and functional assays. For the regular feeder-free culture, hES or hiPS cells were grown on Matrigel (BD Biosciences)-coated plates in a defined medium, mTeSR (StemCell Technologies). Cells were regularly passaged by the standard method using dispase (Invitrogen) or trypsin-EDTA (Lonza). General stem cell culture techniques are described in Freshney et al., Culture of Human Stem Cells (Culture of Specialized Cells), John Wiley & Sons, 1992 (the disclosure of which is incorporated herein by reference for all purposes). mES cells used in the experiment include CJ7, E14, RW4 (a parental line of NMHCIIA^−/A^− mES cells), NMHCIIA^−/A^−, and NMHCIIB^−/B^− mES cells. Cells were maintained on either mitotically inactivated mouse embryonic fibroblasts or gelatin (Sigma)-coated dishes with the standard medium in the presence of leukemia inhibitory factor (LIF) at 1400 U/ml (Millipore). For the microscopic or immunofluorescent analysis, cells were plated at approximately 5000-10000 cells/cm^2. For the defined culture, cells were plated at approximately 10000 cells/cm^2 on plates freshly coated with PDL or PDL-precoated plates (BD Bioscience) in mTeSR supplemented with 2.5 to 5 μM of blebbistatin or Y-27632. Medium was changed every day or every other day depending on confluency. Cells were passaged by using trypsin-EDTA every 3 to 4 days.

Data set [3] deals with hiPS cells. Briefly: TUNEL assay (apoptosis). The procedure:
The samples in triplicates used for cell viability assay were immediately tested by TUNEL assay by using APO-DIRECT kit (BD Pharmingen) according to the manufacturer's protocol. The number of TUNEL (FITC) or propidium iodide (PI)-positive cells was counted by hemocytometer under fluorescent microscopy with 20× objective. When necessary, FITC-labeled cells were verified by using 40× objective to exclude non-specific signal. At least 300 cells were evaluated per each sample and counting was repeated for 2 times. The ratio of the number of TUNEL-positive cells to the number of PI-positive cells was calculated. The representative result was shown in the figure from experiments repeated for at least 3 times. Although flow cytometric analysis was initially attempted, due to persistent cell aggregations from suspension culture experiments even after extensive trypsinization and trituration, we decided to switch to manual cell counting which well correlated with the data obtained from cell viability assay.

For the next data set, the system named is hiPS cells and hES cells. Briefly: Cell survival / embryoid body formation in low-density suspension culture. Particulars: compared with Y27632. The text has this:
While hiPS and hES cells can form cell aggregates and subsequently grow as embryoid bodies when plated at high densities on non-adhesive culture surfaces such as non-tissue culture-treated plates, they mostly undergo apoptosis when plated at low densities that prevent cells from forming aggregates. This is because human pluripotent stem cells are epithelical cells that are programmed to activate cell death signals upon detachment from culture surface (anoikis).

Another data set has as its system hES cells. Briefly: Cell-cell contact of hES cells (morphology, cell contact index). Particulars: hES cells, 10 μM. The protocol: Rock and myosin II regulate cell-cell interactions in hES cells. To test whether the observed function of RRM signaling in cell-cell contacts in mES cells is conserved in hES cells, H1 cells grown under the feeder-free condition with Matrigel™ and conditioned medium (CM) (FIG. 3A) were treated with C3 exoenzyme. […] Rock-inhibitor treatment also led to cell adhesion defects although it required a higher concentration (20 μM) than that (10 μM) for mES cells (FIG. 3C). Myosin IIA and IIB were colocalized with cell-cell borders in hES cells, which indicates their potential role in cell-cell adhesions (FIG. 3D).

In data set [4] the test system is hiPS cells. Nature of the data set: Cell growth assay (population doubling time). Particulars: hiPS cells on PDL in mTeSR, compound at 5 μM. The protocol:
For the cell growth assay, hiPS or hES cells were plated at 2.5×10^4 cells/cm^2 on plates coated with PDL or Matrigel in mTeSR in the presence of blebbistatin at 5 μM or Y-27632 at 5 μM (PDL) or in the absence of compounds (Matrigel). Cells were harvested at the indicated time points, stained with trypan blue, and counted by the hemocytometer.

Take `Cc1ccc2c(c1)C(=O)C1(O)CCN(c3ccccc3)C1=N2` (centres unmarked) [blebbistatin, 1-Phenyl-1,2,3,4-tetrahydro-4-hydroxypyrrolo[2,3-b]-7-methylquinolin-4-one]: in the data set on hiPS cells [1] (hPS cells in suspension, various concentrations), the “Effect on survival in suspension culture” value is on record as “higher viability than Y-27632”. For the same compound, in the data set on hiPS cells [1] (hiPS cells in suspension culture, 10 μM, n=3), the “Number of live cells” value was 1.6±0.12×10^5 cells. In addition, the “Cleaved caspase-3 level by Western analysis” value in the data set with cleaved caspase-3 is recorded as “decreased”. In the data set on hiPS cells [2], the “Growth and cell survival rates compared with Y27632” value is “higher growth and cell survival rates than the cells treated with Y27632”. In addition, the “Cytokinesis defects such as multinucleated cells” value in the data set with hiPS cells [2] (2.5 μM, over 15 passages) is recorded as “without any signs of cytokinesis defects”. In the data set on hiPS cells [2] (PDL-coating, mTeSR), the “Minimum concentration sufficient for supporting cell-matrix interactions but not affecting cell-cell adhesions” value turned out to be 2.5 µM. Also, the “Level of apoptosis (TUNEL and cleaved caspase-3 assays)” value with hiPS cells [3] (hPS cells in suspension culture) is given as “significantly lower levels of apoptosis”. In the data set with hiPS cells [3] (hiPS cells under adherence condition, 24 h, n=3 (control 73±2.5%)), this compound gave a TUNEL-positive cells of 11±3.8%. For the same compound, the “Cell survival in low-density suspension culture” value in the data set on hiPS cells and hES cells is “markedly increased cell survival”. The “Effect on cell-cell connections” value in the data set on hES cells was “disrupted cell-cell connections”. Moreover, in the data set with hiPS cells [4], the Population doubling time entry is given as “approximately 32.1 h”.
